Legend:
[1] = tested on: HCT-116; experiment: Cytotoxicity against human HCT116 cells after 48 hrs by modified propidium iodide assay; assay type: functional, cell-based; settings: HCT-116, 48 h
[2] = tested on: Calu-1; experiment: Cytotoxicity against human Calu1 cells after 48 hrs by modified propidium iodide assay; assay type: functional, cell-based; settings: Calu-1, 48 h
[3] = tested on: NCI-H460; experiment: Cytotoxicity against human H460 cells after 48 hrs by modified propidium iodide assay; assay type: functional, cell-based; settings: NCI-H460, 48 h
[4] = tested on: MCF-10A; experiment: Cytotoxicity against human MCF10A cells after 48 hrs by modified propidium iodide assay; assay type: cell-based
[5] = tested on: PANC-1; experiment: Cytotoxicity against human PANC1 cells after 48 hrs by modified propidium iodide assay; assay type: functional, cell-based; settings: PANC-1, 48 h
[6] = tested on: ACHN; experiment: Cytotoxicity against human ACHN cells after 48 hrs by modified propidium iodide assay; assay type: functional, cell-based

SMILES: CCCCCCCc1cc(OC(=O)c2c(O)cc(O)cc2CCCCCCC)cc(O)c1C(=O)O [PRASINIC ACID]
- IC50 [1]: 7.8 µM
- IC50 [2]: 4.3 µM
- IC50 [3]: 9.1 µM
- IC50 [4]: > 30 µM
- IC50 [5]: 8.5 µM
- IC50 [6]: 8.2 µM
